For this assay, the target named is T1, TLR 3 (Homo sapiens, UniProt O15455).
T1 construct: endogenous in cells; host or cells: BEAS2B (ATCC)
T1 sequence (O15455 24-904): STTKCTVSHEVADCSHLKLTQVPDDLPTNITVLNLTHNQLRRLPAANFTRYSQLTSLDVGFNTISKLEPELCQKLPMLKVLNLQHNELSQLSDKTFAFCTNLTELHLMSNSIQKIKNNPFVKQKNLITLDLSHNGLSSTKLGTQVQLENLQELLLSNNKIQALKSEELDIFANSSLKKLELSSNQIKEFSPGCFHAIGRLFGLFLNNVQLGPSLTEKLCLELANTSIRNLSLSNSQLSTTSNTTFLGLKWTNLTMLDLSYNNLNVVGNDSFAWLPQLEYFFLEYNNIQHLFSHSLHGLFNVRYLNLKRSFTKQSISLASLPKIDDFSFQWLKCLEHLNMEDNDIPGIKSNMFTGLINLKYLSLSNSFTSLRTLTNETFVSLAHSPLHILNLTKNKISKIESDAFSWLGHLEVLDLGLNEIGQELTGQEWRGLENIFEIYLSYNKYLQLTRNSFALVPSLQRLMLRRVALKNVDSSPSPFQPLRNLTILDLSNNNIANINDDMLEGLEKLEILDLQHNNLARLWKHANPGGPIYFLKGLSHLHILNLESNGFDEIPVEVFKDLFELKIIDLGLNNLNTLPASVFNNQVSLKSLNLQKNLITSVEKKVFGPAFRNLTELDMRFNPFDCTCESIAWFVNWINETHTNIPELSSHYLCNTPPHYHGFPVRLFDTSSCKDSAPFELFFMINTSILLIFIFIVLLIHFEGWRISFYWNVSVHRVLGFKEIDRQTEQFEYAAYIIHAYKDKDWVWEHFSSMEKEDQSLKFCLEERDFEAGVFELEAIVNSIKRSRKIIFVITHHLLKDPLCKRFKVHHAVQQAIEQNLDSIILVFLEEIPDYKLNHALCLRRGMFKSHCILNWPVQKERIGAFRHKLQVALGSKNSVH
The assay can be described thus: poly I:C-induced IL-8 release by BEAS2B cells (TLR 3 antagonism). Conditions: for antagonism of TLR 3 activation (IL-8 release): poly I:C, 200 μg/ml lipid, 48 hours; for TLR3 antagonist activity: reduction in cytokine secretion vs activating TLR ligand alone; for IL-8 release from BEAS2B cells in the absence of poly I:C: lipid alone. The class given is cell-based. How it is done:
Human bronchial epithelial cells, BEAS2B, were obtained from ATCC and maintained in bronchial epithelial cell growth medium (BEGM), supplemented with the BulleKit from Lonza in accordance with protocol (M. H. Hudy, S. et al., “Cigarette smoke modulates rhinovirus-induced airway epithelial cell chemokine production.,” Eur. Respir. J., vol. 35, no. 6, pp. 1256-63, June 2010). Cells were cultured at 37 C with 5% carbon dioxide:95% air atmosphere maintained within the incubator. Experiments were conducted in 48-well plates and cells were seated at a density of 5×10^4 per well. After 24 hours, the BEGM medium was replaced with RPMI-1640 medium and incubated for an additional 24 hours. Liposomes were prepared as described above. Each condition for cell stimulation and antagonism was prepared in RPMI medium in a separate tube and consisted of: control (medium alone), TLR agonist, TLR agonist+lipid, and lipid alone. The cells were incubated in […] medium either with or without agonists and antagonists at 37° C. for 48 hours. Subsequently, media were collected, diluted and an enzyme-linked immunosorbent assay (ELISA) was performed to quantify IL-8 release by cells.
The ability of PX lipids to enter the endosomal compartment and modulate immune signaling was next assessed. The human bronchial epithelial cell line, BEAS2B, expresses TLR 3 in its endosomal compartments and is susceptible to infection by respiratory syncytial virus, making this cell line ideal cell line for this study. BEAS2B cells were stimulated with the TLR 3 agonist, poly I:C, in the presence or absence of phospholipid for 48 hours. After incubation, media was collected and IL-8 was quantified as a consequence of TLR 3 activation, and results are summarized in FIG. 5. […] Results from these experiments indicate that xylitol analogs were able to gain entry into BEAS2B cells and inhibit TLR 3 signaling. […] Thus, DMPX, 16:1 DPPX and 18:2 DLPX act as […]

Entries after “also recorded” stand apart in the source; their conditions may differ.

Regarding `CCCCCCCCCCCCCCOC[C@H](COP(=O)(O)OCC(O)C(O)C(O)CO)OCCCCCCCCCCCCCC` (mixture of isomers) [14:0 DEPX, sn-1-O-myristyl, sn-2-O-myristyl sn-3 glycerol phosphoxylitol], the “antagonism of TLR 3 activation (IL-8 release)” value (shortened to “antagonism of TLR 3 activation”) is reported as “suppressed/inhibited activation of TLR3” and the TLR3 antagonist activity entry is “+ (cutoff being greater than a 50% reduction in cytokine secretion compared to activating TLR ligand alone)”. With `CCCCCCC=CCCCCCCCC(=O)OCC(COP(=O)(O)OCC(O)C(O)C(O)CO)OC(=O)CCCCCCCC=CCCCCCC` (mixture of isomers) [16:1 DPPX, sn-1-palmitoleoyl, sn-2-palmitoleoyl sn-3 glycerol phosphoxylitol], the “IL-8 release from BEAS2B cells in the absence of poly I:C” value (from here on “IL-8 release from BEAS2B cells”) is given as “stimulated a robust release of IL-8” and the “antagonism of TLR 3 activation” value is given as “stimulated a robust release of IL-8; also recorded: ineffective antagonists of TLR 3”. On to `CCCCCCCCC=CCCCCCCCCOCC(COP(=O)(O)OCC(O)C(O)C(O)CO)OCCCCCCCCC=CCCCCCCCC` (mixture of isomers) [18:1 DEPX, sn-1-O-octadecenyl, sn-2-O-octadecenyl sn-3 glycerol phosphoxylitol], for which the “antagonism of TLR 3 activation” value is “suppressed/inhibited activation of TLR3” and the TLR3 antagonist activity entry is “+ (cutoff being greater than a 50% reduction in cytokine secretion compared to activating TLR ligand alone)”.

In the case of `CCCCCC=CCC=CCCCCCCCC(=O)OCC(COP(=O)(O)OCC(O)C(O)C(O)CO)OC(=O)CCCCCCCC=CCC=CCCCCC` (mixture of isomers) [18:2 DLPX, sn-1-linoleoyl, sn-2-linoleoyl sn-3 glycerol phosphoxylitol], the “IL-8 release from BEAS2B cells” value is “elicited an inflammatory response” and the “antagonism of TLR 3 activation” value is listed as “ineffective antagonists of TLR 3”. On to `CCCCCCCCCCCCCC(=O)OC[C@H](COP(=O)(O)OCC(O)C(O)C(O)CO)OC(=O)CCCCCCCCCCCCC` (mixture of isomers) [DMPX, sn-1-myristoyl, sn-2-myristoyl sn-3 glycerol phosphoxylitol], for which the “IL-8 release from BEAS2B cells” value is reported as “elicited an inflammatory response” and the “antagonism of TLR 3 activation” value is “ineffective antagonists of TLR 3”. As to `CCCCCCCCC=CCCCCCCCC(=O)OCC(COP(=O)(O)OCC(O)C(O)C(O)CO)OC(=O)CCCCCCCC=CCCCCCCCC` (mixture of isomers) [DOPX, sn-1-oleoyl, sn-2-oleoyl sn-3 glycerol phosphoxylitol], the “antagonism of TLR 3 activation” value is given as “suppressed/inhibited activation of TLR3” and the TLR3 antagonist activity entry is listed as “+ (cutoff being greater than a 50% reduction in cytokine secretion compared to activating TLR ligand alone)”. `CCCCCCCCCCCCCCCC(=O)OCC(COP(=O)(O)OCC(O)C(O)C(O)CO)OC(=O)CCCCCCCCCCCCCCC` (centres unmarked) [DPPX, sn-1-palmitoyl, sn-2-palmitoyl sn-3 glycerol phosphoxylitol]: the “antagonism of TLR 3 activation” value was “suppressed/inhibited activation of TLR3” and the TLR3 antagonist activity result is recorded as “+ (cutoff being greater than a 50% reduction in cytokine secretion compared to activating TLR ligand alone)”. With `CCCCCCCCCCCCCCCCCC(=O)OCC(COP(=O)(O)OCC(O)C(O)C(O)CO)OC(=O)CCCCCCCCCCCCCCCCC` (centres unmarked) [DSPX, sn-1-stearoyl, sn-2-stearoyl sn-3 glycerol phosphoxylitol], the “antagonism of TLR 3 activation” value is “suppressed/inhibited activation of TLR3” and the TLR3 antagonist activity entry was “+ (cutoff being greater than a 50% reduction in cytokine secretion compared to activating TLR ligand alone)”. With `CCCCCCCC/C=C\CCCCCCCC(=O)O[C@H](COC(=O)CCCCCCCCCCCCCCC)COP(=O)([O-])OCC[N+](C)(C)C` [POPC, 1-palmitoyl-2-oleoyl-sn-glycero-3-phosphocholine, reference compound], the “antagonism of TLR 3 activation” value is “unaffected”. The same measure, in the same setting: the value for `CCCCCCCC/C=C\CCCCCCCC(=O)O[C@H](COC(=O)CCCCCCCCCCCCCCC)COP(=O)(O)OCC(O)CO` (some centres unmarked) [POPG, palmitoyl-oleoyl-phosphatidylglycerol, reference compound] was “markedly inhibited”. With `CCCCCCCC/C=C\CCCCCCCC(=O)O[C@H](COC(=O)CCCCCCCCCCCCCCC)COP(=O)(O)OCC(O)C(O)C(O)CO` (some centres unmarked) [POPX, sn-1-palmitoyl, sn-2-oleoyly sn-3 glycerol phosphoxylitol], the “antagonism of TLR 3 activation” value is recorded as “suppressed/inhibited activation of TLR3” and the TLR3 antagonist activity result is given as “+ (cutoff being greater than a 50% reduction in cytokine secretion compared to activating TLR ligand alone)”.

Values taken from patent US12472193B2, “Methods and compositions for treating and preventing respiratory related diseases and conditions with xylitol-headgroup lipid analogs” (National Jewish Health, priority 2017, dated 2025).
